ChEMBL document CHEMBL4152312, “Identification of fused pyrimidines as interleukin 17 secretion inhibitors” (Eur J Med Chem, 2018)

Tests used:
[1] = system: PBMC; assay: Inhibition of IL-5 secretion in anti-human CD3 antibody/anti-human CD28 antibody/IL23-stimulated human PBMC after 48 hrs by ELISA; format: functional, cell-based
[2] = system: PBMC; assay: Cytotoxicity against human PBMC assessed as induction of cell death by cell Titer-Glo assay; format: cell-based
[3] = target: Tyrosine-protein kinase ABL1 (Homo sapiens) (UniProt P00519); assay: Inhibition of recombinant human full length His-tagged ABL1 expressed in baculovirus expression system at 500 nM by Z-LYTE assay relative to control
[4] = target: Tyrosine-protein kinase BTK (Homo sapiens) (UniProt Q06187); assay: Inhibition of recombinant human full length His-tagged BTK expressed in baculovirus expression system at 500 nM by Z-LYTE assay relative to control
[5] = target: Macrophage colony-stimulating factor 1 receptor (Homo sapiens) (UniProt P07333); assay: Inhibition of recombinant human His-tagged CSF1R (538 to 910 residues) expressed in baculovirus expression system at 500 nM by Z-LYTE assay relative to control
[6] = target: Glycogen synthase kinase-3 alpha (Homo sapiens) (UniProt P49840); assay: Inhibition of GSK3alpha (unknown origin) at 500 nM by Z-LYTE assay relative to control
[7] = target: T1, Inhibitor of nuclear factor kappa-B kinase subunit beta (Homo sapiens) (UniProt O14920); assay: Inhibition of recombinant full-length human GST-tagged IKKbeta expressed in baculovirus expression system at 500 nM by Z-LYTE assay relative to control
T1 sequence (whole entry): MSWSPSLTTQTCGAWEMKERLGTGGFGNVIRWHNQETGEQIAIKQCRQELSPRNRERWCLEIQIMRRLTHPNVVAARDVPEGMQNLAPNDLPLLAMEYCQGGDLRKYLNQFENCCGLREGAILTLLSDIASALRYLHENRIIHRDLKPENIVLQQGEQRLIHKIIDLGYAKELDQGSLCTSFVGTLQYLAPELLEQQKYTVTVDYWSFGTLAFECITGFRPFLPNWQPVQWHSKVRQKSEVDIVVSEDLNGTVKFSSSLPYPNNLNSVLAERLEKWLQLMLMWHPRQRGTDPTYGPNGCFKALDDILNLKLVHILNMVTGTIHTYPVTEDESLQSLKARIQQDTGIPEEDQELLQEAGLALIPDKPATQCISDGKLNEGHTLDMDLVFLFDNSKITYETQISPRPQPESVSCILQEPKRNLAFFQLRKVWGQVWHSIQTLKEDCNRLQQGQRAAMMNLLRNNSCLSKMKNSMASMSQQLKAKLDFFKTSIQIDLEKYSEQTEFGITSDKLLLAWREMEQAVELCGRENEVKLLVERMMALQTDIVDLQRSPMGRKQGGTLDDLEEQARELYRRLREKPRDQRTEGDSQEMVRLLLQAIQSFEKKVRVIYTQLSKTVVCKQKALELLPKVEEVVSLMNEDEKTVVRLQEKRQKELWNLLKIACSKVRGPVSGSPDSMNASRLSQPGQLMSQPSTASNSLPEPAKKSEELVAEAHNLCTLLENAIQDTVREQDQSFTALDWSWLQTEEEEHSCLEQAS

[8] = target: T2, Dual specificity mitogen-activated protein kinase kinase 6 (Homo sapiens) (UniProt P52564); assay: Inhibition of recombinant human full length His-tagged MKK6 expressed in baculovirus expression system at 500 nM by Z-LYTE assay relative to control
T2 sequence (whole entry): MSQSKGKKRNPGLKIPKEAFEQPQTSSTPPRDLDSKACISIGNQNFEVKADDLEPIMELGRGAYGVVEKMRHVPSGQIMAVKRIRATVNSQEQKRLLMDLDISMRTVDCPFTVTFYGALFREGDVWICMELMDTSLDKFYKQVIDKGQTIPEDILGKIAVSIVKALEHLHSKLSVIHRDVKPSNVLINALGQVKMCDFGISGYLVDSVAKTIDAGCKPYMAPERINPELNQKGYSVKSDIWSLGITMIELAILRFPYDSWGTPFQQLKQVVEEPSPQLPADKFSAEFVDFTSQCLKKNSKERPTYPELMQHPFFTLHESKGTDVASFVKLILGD

[9] = target: Mitogen-activated protein kinase 1 (Homo sapiens) (UniProt P28482); assay: Inhibition of recombinant human full length GST-tagged ERK2 expressed in Escherichia coli at 500 nM by Z-LYTE assay relative to control
[10] = target: Mitogen-activated protein kinase 3 (Homo sapiens) (UniProt P27361); assay: Inhibition of recombinant human full length GST-tagged ERK1 expressed in Escherichia coli at 500 nM by Z-LYTE assay relative to control
[11] = target: PI3K p110 beta/p85 alpha (Homo sapiens) (UniProt P27986+P42338); assay: Inhibition of PI3K p110beta/p85alpha (unknown origin) at 500 nM by Z-LYTE assay relative to control; format: protein-complex assay
[12] = target: Proto-oncogene tyrosine-protein kinase Src (Homo sapiens) (UniProt P12931); assay: Inhibition of human full length Src expressed in baculovirus expression system at 500 nM by Z-LYTE assay relative to control
[13] = target: Tyrosine-protein kinase Yes (Homo sapiens) (UniProt P07947); assay: Inhibition of human full length GST-tagged YES1 expressed in baculovirus expression system at 500 nM by Z-LYTE assay relative to control
[14] = target: PI3-kinase p110-alpha/p85-alpha (Homo sapiens) (UniProt P27986+P42336); assay: Inhibition of recombinant full length human His-tagged PI3K p110alpha/p85alpha at 500 nM by Z-LYTE assay relative to control; format: protein-complex assay
[15] = target: Nuclear receptor ROR-gamma (Homo sapiens, UniProt P51449); assay: Antagonist activity at GAL4-DBD fused human RORgamma LBD expressed in HEK293 cells after 18 hrs by luciferase reporter gene assay; format: cell-based
[16] = target: Luciferin 4-monooxygenase (Photinus pyralis, UniProt P08659); assay: Inhibition of firefly luciferase activity expressed in HEK293 cells after 18 hrs by luminescence assay; format: cell-based

Sequence of Proto-oncogene tyrosine-protein kinase Src (Homo sapiens) (P12931 2-536 limits assumed): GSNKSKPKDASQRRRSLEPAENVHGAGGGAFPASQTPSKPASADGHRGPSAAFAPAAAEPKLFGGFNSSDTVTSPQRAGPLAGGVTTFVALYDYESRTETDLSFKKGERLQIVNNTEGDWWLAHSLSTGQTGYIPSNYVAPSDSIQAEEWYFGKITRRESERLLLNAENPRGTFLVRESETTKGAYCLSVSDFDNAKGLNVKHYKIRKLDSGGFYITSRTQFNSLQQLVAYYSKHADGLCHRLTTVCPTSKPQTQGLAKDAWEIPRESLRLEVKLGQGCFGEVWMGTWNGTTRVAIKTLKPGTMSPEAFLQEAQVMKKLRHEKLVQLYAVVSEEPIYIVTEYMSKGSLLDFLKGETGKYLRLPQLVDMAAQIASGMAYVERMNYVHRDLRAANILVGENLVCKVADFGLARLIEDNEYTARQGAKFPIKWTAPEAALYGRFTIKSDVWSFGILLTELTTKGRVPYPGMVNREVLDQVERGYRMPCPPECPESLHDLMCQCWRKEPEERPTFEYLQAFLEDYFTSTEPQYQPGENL
Sequence of Tyrosine-protein kinase Yes (Homo sapiens) (P07947 2-543 limits assumed): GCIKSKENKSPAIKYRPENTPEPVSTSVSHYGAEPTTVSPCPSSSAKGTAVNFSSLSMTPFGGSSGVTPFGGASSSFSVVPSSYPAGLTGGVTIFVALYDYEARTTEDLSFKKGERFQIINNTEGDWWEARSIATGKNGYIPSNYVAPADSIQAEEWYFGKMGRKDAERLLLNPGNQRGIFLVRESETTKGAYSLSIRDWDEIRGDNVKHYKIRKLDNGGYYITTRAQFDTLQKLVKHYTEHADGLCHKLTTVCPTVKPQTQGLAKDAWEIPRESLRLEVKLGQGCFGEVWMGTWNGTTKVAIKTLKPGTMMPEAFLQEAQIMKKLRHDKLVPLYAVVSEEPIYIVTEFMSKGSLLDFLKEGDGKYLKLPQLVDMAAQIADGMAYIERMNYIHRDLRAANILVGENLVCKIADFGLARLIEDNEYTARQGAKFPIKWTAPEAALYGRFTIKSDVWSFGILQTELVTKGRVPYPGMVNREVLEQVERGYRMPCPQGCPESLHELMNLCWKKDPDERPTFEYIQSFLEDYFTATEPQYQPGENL
Sequence of Tyrosine-protein kinase BTK (Homo sapiens) (Q06187 whole entry, the tested form may be a part): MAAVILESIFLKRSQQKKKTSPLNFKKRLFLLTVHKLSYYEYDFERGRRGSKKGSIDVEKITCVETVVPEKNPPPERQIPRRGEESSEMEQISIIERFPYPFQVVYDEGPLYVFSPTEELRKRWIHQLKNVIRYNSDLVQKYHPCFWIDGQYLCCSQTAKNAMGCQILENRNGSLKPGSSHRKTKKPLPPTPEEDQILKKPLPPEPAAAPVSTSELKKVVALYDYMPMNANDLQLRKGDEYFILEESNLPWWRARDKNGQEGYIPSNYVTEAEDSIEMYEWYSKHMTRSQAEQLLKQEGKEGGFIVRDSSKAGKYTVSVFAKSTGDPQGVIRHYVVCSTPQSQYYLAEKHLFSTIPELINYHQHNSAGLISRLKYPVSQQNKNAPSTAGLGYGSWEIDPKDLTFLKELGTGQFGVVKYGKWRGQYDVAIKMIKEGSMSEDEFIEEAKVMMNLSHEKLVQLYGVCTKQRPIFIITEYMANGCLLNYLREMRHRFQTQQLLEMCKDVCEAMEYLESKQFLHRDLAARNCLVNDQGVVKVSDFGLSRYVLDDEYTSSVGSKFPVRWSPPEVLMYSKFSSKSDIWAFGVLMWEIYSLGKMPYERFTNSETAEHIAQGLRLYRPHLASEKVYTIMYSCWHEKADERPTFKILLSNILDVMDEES
Sequence of Tyrosine-protein kinase ABL1 (Homo sapiens) (P00519 whole entry): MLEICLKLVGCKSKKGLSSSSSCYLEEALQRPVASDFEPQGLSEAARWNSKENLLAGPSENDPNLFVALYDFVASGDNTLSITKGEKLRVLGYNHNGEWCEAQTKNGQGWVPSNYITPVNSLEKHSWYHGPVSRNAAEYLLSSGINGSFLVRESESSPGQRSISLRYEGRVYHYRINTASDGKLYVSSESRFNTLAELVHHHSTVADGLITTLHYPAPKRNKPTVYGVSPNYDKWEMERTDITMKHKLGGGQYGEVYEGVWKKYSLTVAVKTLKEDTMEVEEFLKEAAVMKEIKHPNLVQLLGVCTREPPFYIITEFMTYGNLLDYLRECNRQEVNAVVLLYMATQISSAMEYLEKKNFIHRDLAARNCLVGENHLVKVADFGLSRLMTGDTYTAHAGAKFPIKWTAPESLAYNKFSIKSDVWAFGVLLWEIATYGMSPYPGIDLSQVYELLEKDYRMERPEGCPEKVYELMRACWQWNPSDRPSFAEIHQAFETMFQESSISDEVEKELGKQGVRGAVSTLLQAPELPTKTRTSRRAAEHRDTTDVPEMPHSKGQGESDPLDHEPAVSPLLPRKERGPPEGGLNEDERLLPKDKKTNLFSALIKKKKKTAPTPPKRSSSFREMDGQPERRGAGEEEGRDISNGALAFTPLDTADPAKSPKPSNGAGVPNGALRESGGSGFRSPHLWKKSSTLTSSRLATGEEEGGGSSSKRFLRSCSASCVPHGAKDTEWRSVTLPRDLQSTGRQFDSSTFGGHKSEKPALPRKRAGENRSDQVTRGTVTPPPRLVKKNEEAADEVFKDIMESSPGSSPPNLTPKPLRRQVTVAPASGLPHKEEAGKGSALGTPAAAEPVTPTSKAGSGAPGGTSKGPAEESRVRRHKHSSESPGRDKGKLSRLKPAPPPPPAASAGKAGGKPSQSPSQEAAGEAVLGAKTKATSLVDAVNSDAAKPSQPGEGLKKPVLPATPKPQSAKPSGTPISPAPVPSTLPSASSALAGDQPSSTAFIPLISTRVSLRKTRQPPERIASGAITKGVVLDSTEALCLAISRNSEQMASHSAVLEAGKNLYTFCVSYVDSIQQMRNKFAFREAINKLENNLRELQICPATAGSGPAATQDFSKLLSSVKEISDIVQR
Sequence of Mitogen-activated protein kinase 3 (Homo sapiens) (P27361 whole entry): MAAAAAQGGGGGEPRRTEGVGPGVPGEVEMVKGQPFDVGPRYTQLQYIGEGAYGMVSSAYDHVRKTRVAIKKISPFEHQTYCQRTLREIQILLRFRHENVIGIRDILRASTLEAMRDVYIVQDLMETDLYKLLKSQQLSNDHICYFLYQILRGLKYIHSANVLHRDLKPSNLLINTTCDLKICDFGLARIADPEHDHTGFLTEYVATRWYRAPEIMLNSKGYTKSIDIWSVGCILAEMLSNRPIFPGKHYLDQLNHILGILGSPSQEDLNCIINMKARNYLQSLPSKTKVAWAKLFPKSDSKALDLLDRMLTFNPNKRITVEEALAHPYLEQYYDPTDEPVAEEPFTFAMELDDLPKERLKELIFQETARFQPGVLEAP
Sequence of Mitogen-activated protein kinase 1 (Homo sapiens) (P28482 whole entry): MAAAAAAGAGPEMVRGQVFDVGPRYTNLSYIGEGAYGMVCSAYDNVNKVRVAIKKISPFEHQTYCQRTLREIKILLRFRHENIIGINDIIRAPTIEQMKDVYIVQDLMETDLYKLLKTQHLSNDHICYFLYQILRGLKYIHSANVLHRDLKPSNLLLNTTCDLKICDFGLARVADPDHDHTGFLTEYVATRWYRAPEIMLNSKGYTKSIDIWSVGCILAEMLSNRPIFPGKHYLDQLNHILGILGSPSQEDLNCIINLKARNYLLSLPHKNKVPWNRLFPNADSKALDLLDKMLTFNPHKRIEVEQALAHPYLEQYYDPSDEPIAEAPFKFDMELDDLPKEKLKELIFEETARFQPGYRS
Sequence of Macrophage colony-stimulating factor 1 receptor (Homo sapiens) (P07333 whole entry, the tested form may be a part): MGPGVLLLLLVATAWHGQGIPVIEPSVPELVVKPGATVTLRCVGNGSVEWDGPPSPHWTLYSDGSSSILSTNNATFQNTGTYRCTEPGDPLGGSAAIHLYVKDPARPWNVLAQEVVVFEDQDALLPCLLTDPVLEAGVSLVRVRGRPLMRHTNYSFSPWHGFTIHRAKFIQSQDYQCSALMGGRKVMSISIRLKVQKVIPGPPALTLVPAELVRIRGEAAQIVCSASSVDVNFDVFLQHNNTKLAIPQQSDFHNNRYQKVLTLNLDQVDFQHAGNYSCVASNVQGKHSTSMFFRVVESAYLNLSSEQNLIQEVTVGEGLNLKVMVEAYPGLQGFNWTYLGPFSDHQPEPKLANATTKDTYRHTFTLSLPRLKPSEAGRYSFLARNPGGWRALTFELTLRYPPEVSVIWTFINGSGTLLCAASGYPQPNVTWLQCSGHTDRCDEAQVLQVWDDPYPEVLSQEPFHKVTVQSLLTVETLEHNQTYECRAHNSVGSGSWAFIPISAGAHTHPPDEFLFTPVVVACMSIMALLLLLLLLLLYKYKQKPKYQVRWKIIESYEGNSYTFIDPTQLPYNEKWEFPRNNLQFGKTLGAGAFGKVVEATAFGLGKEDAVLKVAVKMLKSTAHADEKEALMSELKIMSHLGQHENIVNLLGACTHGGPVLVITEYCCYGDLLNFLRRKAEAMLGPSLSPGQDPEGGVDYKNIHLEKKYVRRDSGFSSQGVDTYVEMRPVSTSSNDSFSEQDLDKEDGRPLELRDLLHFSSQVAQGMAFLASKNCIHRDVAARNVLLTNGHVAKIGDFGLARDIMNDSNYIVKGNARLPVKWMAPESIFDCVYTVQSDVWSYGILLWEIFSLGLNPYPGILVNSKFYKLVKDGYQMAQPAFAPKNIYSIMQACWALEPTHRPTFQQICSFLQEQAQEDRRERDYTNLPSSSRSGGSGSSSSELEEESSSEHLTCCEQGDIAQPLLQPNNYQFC

Row | inhibition [3] [%] | inhibition [4] [%] | inhibition [5] [%] | inhibition [6] [%] | inhibition [7] [%] | inhibition [8] [%] | inhibition [9] [%] | inhibition [10] [%] | inhibition [11] [%] | inhibition [12] [%] | inhibition [13] [%] | inhibition [14] [%] | IC50 [15] [µM] | IC50 [16] [µM] | Compound | IC50 [1] [µM] | IC50 [2] [µM]
1 | 84 | 9 | 96 | 4 | 11 | 3 | 9 | 3 | 4 | 74 | 81 |  |  |  | OCc1ccc(-c2cc3c(N[C@H](CO)c4ccccc4)ncnc3[nH]2)cc1 | 1.1 | > 10
2 | 8 | 5 | 31 | 9 | 12 | 11 | 7 | 6 | 1 |  | 13 | 16 |  |  | OC[C@@H](Nc1ncnc2sc(-c3ccc(O)cc3)cc12)c1ccccc1 | 13 to 13.1 | > 30
3 | 69 | 62 | 39 | 3 | 7 | 5 | 6 | 0 | 12 | 55 | 65 |  | > 10 | > 10 | CN(C)CCn1cc(-c2cccc(O)c2)c2c(N)ncnc21 |  | > 10
4 | 5 | 3 | 21 | 14 | 14 | 8 | 6 | 0 | 11 | 16 | 9 |  | 4.9 | 9.1 | CCC(=O)Nc1ccc(-c2c[nH]c3ncnc(N[C@H](C)c4ccccc4)c23)cc1 |  | > 10
